# ChEMBL document CHEMBL4118122, “Identification and biological evaluation of thiazole-based inverse agonists of RORγt” (Bioorg Med Chem Lett, 2018)
# Assays:
# [1] = molecular target: T1, Nuclear receptor ROR-gamma (Homo sapiens, UniProt P51449); experiment: Binding affinity to recombinant human RORgamma LBD (237 to 497 residues) expressed in Escherichia coli BL21 (DE3) GOLD by 1,8-ANS dye-based thermofluor assay
# T1 sequence (P51449 whole entry): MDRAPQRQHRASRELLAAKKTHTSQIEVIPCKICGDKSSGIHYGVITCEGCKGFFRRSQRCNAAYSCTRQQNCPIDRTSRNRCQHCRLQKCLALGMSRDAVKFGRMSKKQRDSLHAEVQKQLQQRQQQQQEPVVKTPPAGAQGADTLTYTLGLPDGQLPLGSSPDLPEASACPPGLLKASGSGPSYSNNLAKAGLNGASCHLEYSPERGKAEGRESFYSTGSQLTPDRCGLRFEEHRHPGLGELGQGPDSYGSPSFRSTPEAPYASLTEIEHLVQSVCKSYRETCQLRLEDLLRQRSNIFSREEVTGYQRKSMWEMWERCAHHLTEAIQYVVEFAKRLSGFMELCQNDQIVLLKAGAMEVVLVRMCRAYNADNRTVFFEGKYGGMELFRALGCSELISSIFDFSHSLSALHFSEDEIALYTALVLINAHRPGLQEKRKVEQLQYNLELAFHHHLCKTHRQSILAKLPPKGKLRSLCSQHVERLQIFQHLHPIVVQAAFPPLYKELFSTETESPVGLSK
# [2] = molecular target: T1, Nuclear receptor ROR-gamma; experiment: Inverse agonist activity at human GAL4 DBD-fused RORgammat LBD (237 to 497 residues) expressed in HEK293T cells assessed as reduction in ROR mediated transcriptional activity after 24 hrs by dual glo luciferase reporter gene assay; assay type: cell-based
# Adenosine receptor A2a = Adenosine receptor A2a (Homo sapiens, UniProt P29274); experiment: Displacement of [3H]-CGS 21680 from human recombinant adenosine A2A receptor at 10 uM after 120 mins by scintillation counting analysis relative to control
# Histamine H1 receptor = Histamine H1 receptor (Homo sapiens, UniProt P35367); experiment: Displacement of [3H]pyrilamine from human recombinant histamine H1 receptor at 10 uM after 60 mins by scintillation counting analysis relative to control
# [3] = molecular target: Neuropeptide Y receptor type 2 (Homo sapiens) (UniProt P49146); experiment: Displacement of [125I]peptide YY from human Y2 receptor at 10 uM after 120 mins by scintillation counting analysis relative to control
# Nociceptin receptor = Nociceptin receptor (Homo sapiens, UniProt P41146); experiment: Displacement of [3H]nociceptin from human recombinant NOP receptor at 10 uM after 60 mins by scintillation counting analysis relative to control
# [4] = molecular target: 5-hydroxytryptamine receptor 5A (Homo sapiens, UniProt P47898); experiment: Displacement of [3H]LSD from human recombinant 5-HT5a receptor at 10 uM after 120 mins by scintillation counting analysis relative to control
# [5] = molecular target: Somatostatin receptor (Mus musculus) (UniProt P30935+O08858+P30875+P30873+P49660); experiment: Displacement of [125I]Tyr11-somatostatin-14 from mouse SST receptor at 10 uM after 60 mins by scintillation counting analysis relative to control; assay type: protein assay
# Vasopressin V1a receptor [6] = molecular target: T2, Vasopressin V1a receptor (Homo sapiens, UniProt P37288); experiment: Displacement of [3H]AVP from human recombinant V1a receptor at 10 uM after 60 mins by scintillation counting analysis relative to control
# Rattus norvegicus = organism: Rattus norvegicus; experiment: Displacement of [3H]D 888 from rat brain L-type calcium channel verapamil binding site at 10 uM after 120 mins by scintillation counting analysis relative to control
# [7] = molecular target: C-X-C chemokine receptor type 2 (Homo sapiens) (UniProt P25025); experiment: Displacement of [125I]IL-8 from human recombinant CXCR2 receptor at 1 uM after 60 mins by scintillation counting analysis relative to control
# [8] = molecular target: Kappa-type opioid receptor (Homo sapiens, UniProt P41145); experiment: Displacement of [3H]U69593 from human kappa receptor at 1 uM after 60 mins by scintillation counting analysis relative to control
# [9] = molecular target: Type-1 angiotensin II receptor (Homo sapiens, UniProt P30556); experiment: Displacement of [125I][Sar1,Ile8]-AT-II from human recombinant AT1 receptor after 120 mins by scintillation counting analysis
# [10] = molecular target: Muscarinic acetylcholine receptor M2 (Homo sapiens, UniProt P08172); experiment: Displacement of [3H]AF-DX 384 from human recombinant M2 receptor after 60 mins by scintillation counting analysis
# [11] = molecular target: Muscarinic acetylcholine receptor M3 (Homo sapiens, UniProt P20309); experiment: Displacement of [3H]4-DAMP from human recombinant M3 receptor after 60 mins by scintillation counting analysis
# [12] = molecular target: 5-hydroxytryptamine receptor 3A (Homo sapiens, UniProt P46098); experiment: Displacement of [3H]BRL 43694 from human recombinant 5-HT3 receptor after 120 mins by scintillation counting analysis
# Vasopressin V1a receptor [13] = molecular target: T2, Vasopressin V1a receptor; experiment: Displacement of [3H]AVP from human recombinant V1a receptor after 60 mins by scintillation counting analysis
# [14] = Displacement of [3H]D 888 from rat brain L-type calcium channel verapamil binding site after 120 mins by scintillation counting analysis
# [15] = Displacement of [125I]alpha-dendrotoxin from rat brain voltage-gated K channel after 60 mins by scintillation counting analysis
# [16] = molecular target: Sodium-dependent noradrenaline transporter (Homo sapiens, UniProt P23975); experiment: Displacement of [3H]nisoxetine from recombinant human norepinephrine transporter after 120 mins by scintillation counting analysis
# [17] = molecular target: Calcium/calmodulin-dependent protein kinase type II subunit beta (Homo sapiens) (UniProt Q13554); experiment: Inhibition of recombinant full length His-tagged human CaMK2beta expressed in baculovirus expression system at 10 uM in presence of ATP relative to control
# [18] = molecular target: Dual specificity protein kinase CLK2 (Homo sapiens) (UniProt P49760); experiment: Inhibition of recombinant GST-tagged human CLK2 catalytic domain (137 to 498 residues) expressed in baculovirus expression system at 10 uM in presence of ATP relative to control
# [19] = molecular target: Death-associated protein kinase 3 (Homo sapiens) (UniProt O43293); experiment: Inhibition of recombinant full length GST-tagged human ZIPK expressed in baculovirus expression system at 10 uM in presence of ATP relative to control
# [20] = molecular target: Receptor-type tyrosine-protein kinase FLT3 (Homo sapiens) (UniProt P36888); experiment: Inhibition of recombinant His-tagged human FLT3 (564 to 958 residues) cytoplasmic domain expressed in baculovirus expression system at 10 uM in presence of ATP relative to control
# [21] = molecular target: NT-3 growth factor receptor (Homo sapiens) (UniProt Q16288); experiment: Inhibition of recombinant full length His-tagged human NTRK3 (510 to 825 residues) cytoplasmic domain expressed in baculovirus expression system at 10 uM in presence of ATP relative to control
# [22] = molecular target: cAMP-dependent protein kinase catalytic subunit alpha (Homo sapiens) (UniProt P17612); experiment: Inhibition of recombinant human His-tagged PRKACA expressed in Escherichia coli at 10 uM in presence of ATP relative to control
# [23] = Half life in rat microsomes; assay type: ADME, Microsome
# [24] = Clearance in Sprague-Dawley rat at 1 mg/kg, iv; assay type: ADME, organism-based; conditions: in vivo
# Chain of Receptor-type tyrosine-protein kinase FLT3 (Homo sapiens) (P36888 whole entry, the tested form may be a part): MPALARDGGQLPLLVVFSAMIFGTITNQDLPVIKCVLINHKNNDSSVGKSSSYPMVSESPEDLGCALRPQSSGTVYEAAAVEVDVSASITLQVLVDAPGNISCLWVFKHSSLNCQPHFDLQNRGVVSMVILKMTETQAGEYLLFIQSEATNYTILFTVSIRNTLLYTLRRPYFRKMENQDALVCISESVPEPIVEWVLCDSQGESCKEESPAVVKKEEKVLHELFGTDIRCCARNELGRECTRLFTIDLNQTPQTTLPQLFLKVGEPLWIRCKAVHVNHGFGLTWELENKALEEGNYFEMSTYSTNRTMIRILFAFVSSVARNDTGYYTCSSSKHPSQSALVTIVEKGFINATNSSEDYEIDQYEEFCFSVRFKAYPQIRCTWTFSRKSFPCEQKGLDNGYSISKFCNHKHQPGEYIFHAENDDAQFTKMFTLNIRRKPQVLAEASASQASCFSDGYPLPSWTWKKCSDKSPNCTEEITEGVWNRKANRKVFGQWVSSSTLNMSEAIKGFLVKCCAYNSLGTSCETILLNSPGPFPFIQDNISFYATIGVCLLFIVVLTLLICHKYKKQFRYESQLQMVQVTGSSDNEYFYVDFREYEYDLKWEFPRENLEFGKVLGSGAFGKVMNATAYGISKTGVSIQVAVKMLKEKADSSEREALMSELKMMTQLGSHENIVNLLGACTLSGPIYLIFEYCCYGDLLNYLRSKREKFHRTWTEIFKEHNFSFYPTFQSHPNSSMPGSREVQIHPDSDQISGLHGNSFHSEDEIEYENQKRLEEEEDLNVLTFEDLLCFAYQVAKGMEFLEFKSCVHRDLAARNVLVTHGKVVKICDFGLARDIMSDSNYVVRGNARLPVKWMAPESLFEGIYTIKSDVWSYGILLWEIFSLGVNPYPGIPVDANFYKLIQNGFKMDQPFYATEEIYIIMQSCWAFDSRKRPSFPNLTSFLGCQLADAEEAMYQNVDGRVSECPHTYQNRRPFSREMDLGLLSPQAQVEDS
# Chain of Muscarinic acetylcholine receptor M2 (P08172 whole entry): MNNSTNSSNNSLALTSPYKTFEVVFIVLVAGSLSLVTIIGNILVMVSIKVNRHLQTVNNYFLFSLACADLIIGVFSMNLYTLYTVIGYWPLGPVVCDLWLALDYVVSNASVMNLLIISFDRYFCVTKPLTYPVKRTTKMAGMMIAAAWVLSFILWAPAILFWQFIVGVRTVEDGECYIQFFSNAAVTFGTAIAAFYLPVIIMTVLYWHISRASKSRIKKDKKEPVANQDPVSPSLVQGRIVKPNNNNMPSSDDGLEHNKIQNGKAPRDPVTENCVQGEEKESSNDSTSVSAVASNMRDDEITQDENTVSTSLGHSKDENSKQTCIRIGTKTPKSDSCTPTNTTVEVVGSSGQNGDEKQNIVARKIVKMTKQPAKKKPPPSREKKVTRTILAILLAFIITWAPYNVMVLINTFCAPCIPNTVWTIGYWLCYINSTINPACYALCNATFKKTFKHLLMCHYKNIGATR
# Chain of Kappa-type opioid receptor (P41145 whole entry): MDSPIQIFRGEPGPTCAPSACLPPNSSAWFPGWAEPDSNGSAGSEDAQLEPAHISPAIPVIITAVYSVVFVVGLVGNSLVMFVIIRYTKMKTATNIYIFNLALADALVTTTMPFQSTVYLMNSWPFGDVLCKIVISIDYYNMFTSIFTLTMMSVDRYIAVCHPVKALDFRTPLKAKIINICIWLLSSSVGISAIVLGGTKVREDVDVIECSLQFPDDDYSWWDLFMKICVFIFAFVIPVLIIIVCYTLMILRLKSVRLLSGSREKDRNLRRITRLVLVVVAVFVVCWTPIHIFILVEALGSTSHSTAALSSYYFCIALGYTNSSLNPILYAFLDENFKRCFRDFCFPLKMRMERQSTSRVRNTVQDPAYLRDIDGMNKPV
# Chain of Dual specificity protein kinase CLK2 (Homo sapiens) (P49760 whole entry, looked up, the tested form may be a part): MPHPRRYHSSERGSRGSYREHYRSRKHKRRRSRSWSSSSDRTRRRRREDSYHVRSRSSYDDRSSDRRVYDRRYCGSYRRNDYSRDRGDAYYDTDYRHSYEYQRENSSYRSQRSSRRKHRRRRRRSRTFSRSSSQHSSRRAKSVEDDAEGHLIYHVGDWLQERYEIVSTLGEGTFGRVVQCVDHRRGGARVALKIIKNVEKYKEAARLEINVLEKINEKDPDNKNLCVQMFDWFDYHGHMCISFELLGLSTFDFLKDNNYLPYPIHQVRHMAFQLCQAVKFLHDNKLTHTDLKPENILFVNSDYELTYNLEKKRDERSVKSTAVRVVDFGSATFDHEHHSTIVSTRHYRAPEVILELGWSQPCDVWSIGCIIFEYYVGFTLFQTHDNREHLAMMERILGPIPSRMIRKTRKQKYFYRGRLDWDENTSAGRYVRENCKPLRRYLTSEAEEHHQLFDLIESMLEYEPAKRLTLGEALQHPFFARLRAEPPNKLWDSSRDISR
# Chain of Somatostatin receptor (Mus musculus) (P30935 whole entry): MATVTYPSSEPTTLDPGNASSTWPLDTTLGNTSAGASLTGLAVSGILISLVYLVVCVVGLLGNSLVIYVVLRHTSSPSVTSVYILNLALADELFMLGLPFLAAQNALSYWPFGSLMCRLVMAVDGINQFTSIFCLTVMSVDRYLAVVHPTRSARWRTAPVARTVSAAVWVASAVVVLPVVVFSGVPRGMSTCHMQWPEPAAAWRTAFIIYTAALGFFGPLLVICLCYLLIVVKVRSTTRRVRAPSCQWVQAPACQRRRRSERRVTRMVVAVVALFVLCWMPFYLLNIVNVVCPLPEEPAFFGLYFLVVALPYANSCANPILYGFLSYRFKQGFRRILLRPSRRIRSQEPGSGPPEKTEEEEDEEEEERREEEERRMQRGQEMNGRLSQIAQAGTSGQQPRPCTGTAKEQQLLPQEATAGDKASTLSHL
# Chain of Somatostatin receptor (Mus musculus) (O08858 whole entry): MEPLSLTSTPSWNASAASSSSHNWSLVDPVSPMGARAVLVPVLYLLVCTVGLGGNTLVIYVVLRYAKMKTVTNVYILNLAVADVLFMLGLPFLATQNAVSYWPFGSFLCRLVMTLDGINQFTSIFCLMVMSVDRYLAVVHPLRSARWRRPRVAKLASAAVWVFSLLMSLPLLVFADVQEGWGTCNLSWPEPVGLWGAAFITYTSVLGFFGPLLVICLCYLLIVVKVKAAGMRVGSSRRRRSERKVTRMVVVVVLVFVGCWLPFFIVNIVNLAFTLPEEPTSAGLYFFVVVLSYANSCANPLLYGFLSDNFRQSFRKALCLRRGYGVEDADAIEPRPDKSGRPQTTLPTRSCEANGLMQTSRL
# Chain of Somatostatin receptor (Mus musculus) (P30875 whole entry): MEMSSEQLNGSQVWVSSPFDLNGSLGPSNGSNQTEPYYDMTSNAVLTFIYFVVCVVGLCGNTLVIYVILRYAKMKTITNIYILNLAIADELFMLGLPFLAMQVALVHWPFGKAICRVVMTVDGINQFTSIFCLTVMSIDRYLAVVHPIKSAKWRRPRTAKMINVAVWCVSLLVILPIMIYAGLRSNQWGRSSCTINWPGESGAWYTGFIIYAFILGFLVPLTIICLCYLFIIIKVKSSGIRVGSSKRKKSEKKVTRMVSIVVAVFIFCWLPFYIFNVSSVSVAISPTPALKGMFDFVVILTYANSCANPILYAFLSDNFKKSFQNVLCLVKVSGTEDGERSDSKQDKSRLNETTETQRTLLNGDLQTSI
# Chain of Somatostatin receptor (Mus musculus) (P30873 whole entry): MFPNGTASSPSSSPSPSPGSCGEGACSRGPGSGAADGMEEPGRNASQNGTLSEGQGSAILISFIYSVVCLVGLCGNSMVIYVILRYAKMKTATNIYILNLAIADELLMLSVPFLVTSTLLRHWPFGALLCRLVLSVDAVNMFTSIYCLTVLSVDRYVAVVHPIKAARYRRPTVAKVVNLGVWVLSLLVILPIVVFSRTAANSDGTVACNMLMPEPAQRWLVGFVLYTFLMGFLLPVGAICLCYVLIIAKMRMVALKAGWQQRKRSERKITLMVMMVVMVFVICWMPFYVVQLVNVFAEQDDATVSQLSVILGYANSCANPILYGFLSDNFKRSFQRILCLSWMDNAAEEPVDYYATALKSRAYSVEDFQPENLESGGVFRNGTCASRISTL
# Chain of Somatostatin receptor (Mus musculus) (P49660 with tags, fused parts or gaps): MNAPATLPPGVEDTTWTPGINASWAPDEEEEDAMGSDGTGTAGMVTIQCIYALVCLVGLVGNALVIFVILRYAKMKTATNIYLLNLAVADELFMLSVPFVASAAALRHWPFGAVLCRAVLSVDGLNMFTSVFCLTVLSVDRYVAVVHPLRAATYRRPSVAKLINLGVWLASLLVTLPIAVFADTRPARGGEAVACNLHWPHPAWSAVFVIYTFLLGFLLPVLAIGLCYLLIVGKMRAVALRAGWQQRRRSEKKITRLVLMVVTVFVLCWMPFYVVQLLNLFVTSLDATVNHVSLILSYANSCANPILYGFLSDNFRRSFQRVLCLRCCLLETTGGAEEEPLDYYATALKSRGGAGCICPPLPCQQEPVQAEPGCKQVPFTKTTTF
# Chain of Death-associated protein kinase 3 (Homo sapiens) (O43293 whole entry, looked up, the tested form may be a part): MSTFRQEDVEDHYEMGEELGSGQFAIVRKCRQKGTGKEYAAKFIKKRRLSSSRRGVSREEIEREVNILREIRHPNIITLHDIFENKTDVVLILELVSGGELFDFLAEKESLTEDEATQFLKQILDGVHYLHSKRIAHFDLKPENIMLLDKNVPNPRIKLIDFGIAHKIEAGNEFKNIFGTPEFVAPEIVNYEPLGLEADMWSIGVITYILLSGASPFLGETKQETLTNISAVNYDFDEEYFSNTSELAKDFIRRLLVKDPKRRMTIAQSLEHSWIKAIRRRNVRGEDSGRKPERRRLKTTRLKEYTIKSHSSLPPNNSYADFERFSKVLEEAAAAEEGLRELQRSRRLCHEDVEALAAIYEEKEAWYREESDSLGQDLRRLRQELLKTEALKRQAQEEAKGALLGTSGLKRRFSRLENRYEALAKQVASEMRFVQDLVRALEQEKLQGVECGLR
compound,measurement,setting,value
CC(C)(C)NS(=O)(=O)c1ccc(-c2sc(C(=O)N[C@H]3C[C@H](C(=O)O)C3)nc2CC2CCCCC2)c2ccccc12,Kd,[1],0.12 nM
same,IC50,[2],0.94 nM
same,inhibition,Adenosine receptor A2a,20%
same,inhibition,Histamine H1 receptor,54%
same,inhibition,[3],< 10%
same,inhibition,Nociceptin receptor,< 10%
same,inhibition,[4],85%
same,inhibition,[5],< 10%
same,inhibition,Vasopressin V1a receptor [6],10%
same,inhibition,Rattus norvegicus,< 10%
same,inhibition,[7],< 10%
same,inhibition,[8],< 10%
same,IC50,[9],0.47 nM
same,IC50,[10],48 nM
same,IC50,[11],0.73 nM
same,IC50,[12],4.9 nM
same,IC50,Vasopressin V1a receptor [13],1.1 nM
same,IC50,[14],51 nM
same,IC50,[15],0.22 nM
same,IC50,[16],3.4 nM
same,inhibition,[17],6%
same,inhibition,[18],-1%
same,inhibition,[19],-5%
same,inhibition,[20],0%
same,inhibition,[21],-10%
same,inhibition,[22],-4%
same,half-life,[23],47 min
same,clearance,[24],51.4 mL/min/kg
